Results from the NIST ThermoML archive (doi:10.1016/j.tca.2010.04.004).
Numbers after ± are expanded uncertainties.

Assay: mn = molality of the nth substance listed, in mol/kg
Conditions: 298.15 K, 101 kPa, Liquid, Vibrating tube method

With `O=S(=O)(O)CC(O)CN1CCOCC1` (stereo not drawn) [3-morpholino-2-hydroxypropanesulfonic acid] + O the mass density (m1 = 0.0126) was 998.04 ± 0.13 kg/m3, the mass density (m1 = 0.0178) was 998.45 ± 0.13 kg/m3 and the mass density (m1 = 0.0228) was 998.84 ± 0.13 kg/m3. For the same compound, the mass density (m1 = 0.027) was 999.17 ± 0.13 kg/m3, the mass density (m1 = 0.036) was 999.87 ± 0.13 kg/m3 and the mass density (m1 = 0.045) was 1000.57 ± 0.13 kg/m3. It also gave a mass density (m1 = 0.0519) of 1001.1 ± 0.13 kg/m3, a mass density (m1 = 0.063) of 1001.95 ± 0.13 kg/m3 and a mass density (m1 = 0.0706) of 1002.53 ± 0.13 kg/m3. For the same compound, the mass density (m1 = 0.0771) was 1003.03 ± 0.13 kg/m3.

Compound `O=S(=O)(O)CCCCN1CCOCC1` [4-morpholinebutanesulfonic acid] + O has a mass density (m1 = 0.0134) of 997.89 ± 0.13 kg/m3, a mass density (m1 = 0.0201) of 998.3 ± 0.13 kg/m3 and a mass density (m1 = 0.0282) of 998.8 ± 0.13 kg/m3. It also gave a mass density (m1 = 0.0365) of 999.31 ± 0.13 kg/m3, a mass density (m1 = 0.0456) of 999.87 ± 0.13 kg/m3 and a mass density (m1 = 0.054) of 1000.38 ± 0.13 kg/m3. The mass density (m1 = 0.0636) was 1000.96 ± 0.13 kg/m3, the mass density (m1 = 0.0702) was 1001.35 ± 0.13 kg/m3 and the mass density (m1 = 0.0768) was 1001.74 ± 0.13 kg/m3. For the same compound, the mass density (m1 = 0.0827) was 1002.09 ± 0.13 kg/m3.

`O=S(=O)(O)CCN1CCOCC1` [4-morpholineethanesulfonic acid] + O showed a mass density (m1 = 0.0114) of 997.79 ± 0.13 kg/m3, a mass density (m1 = 0.018) of 998.22 ± 0.13 kg/m3 and a mass density (m1 = 0.0237) of 998.59 ± 0.13 kg/m3. It also gave a mass density (m1 = 0.0301) of 999.01 ± 0.13 kg/m3, a mass density (m1 = 0.0403) of 999.67 ± 0.13 kg/m3 and a mass density (m1 = 0.0513) of 1000.38 ± 0.13 kg/m3. The mass density (m1 = 0.0614) was 1001.03 ± 0.13 kg/m3, the mass density (m1 = 0.0722) was 1001.72 ± 0.13 kg/m3 and the mass density (m1 = 0.0822) was 1002.35 ± 0.13 kg/m3. The mass density (m1 = 0.0947) was 1003.14 ± 0.13 kg/m3.

Work on `O=S(=O)(O)CCCN1CCOCC1` [4-morpholinepropanesulfonic acid] + O yielded a mass density (m1 = 0.0077) of 997.53 ± 0.12 kg/m3, a mass density (m1 = 0.0172) of 998.13 ± 0.12 kg/m3 and a mass density (m1 = 0.0292) of 998.88 ± 0.12 kg/m3. For the same compound, the mass density (m1 = 0.0386) was 999.46 ± 0.12 kg/m3, the mass density (m1 = 0.0496) was 1000.14 ± 0.12 kg/m3 and the mass density (m1 = 0.0556) was 1000.5 ± 0.12 kg/m3. The mass density (m1 = 0.0611) was 1000.84 ± 0.12 kg/m3, the mass density (m1 = 0.0668) was 1001.19 ± 0.12 kg/m3 and the mass density (m1 = 0.0736) was 1001.59 ± 0.12 kg/m3. For the same compound, the mass density (m1 = 0.0812) was 1002.05 ± 0.12 kg/m3 and the mass density (m1 = 0.0869) was 1002.39 ± 0.12 kg/m3.

Compound `[Br-].[K+]` [potassium bromide] + O has a mass density (m1 = 0.05) of 1001.25 ± 0.13 kg/m3, a mass density (m1 = 0.16) of 1010.47 ± 0.13 kg/m3 and a mass density (m1 = 0.25) of 1017.89 ± 0.14 kg/m3.

For `[Cl-].[K+]` [potassium chloride] + O, the mass density (m1 = 0.05) was 999.45 ± 0.12 kg/m3, the mass density (m1 = 0.16) was 1004.53 ± 0.12 kg/m3 and the mass density (m1 = 0.25) was 1008.66 ± 0.12 kg/m3.

In the case of `CC(=O)[O-].[K+]` [potassium ethanoate] + O, the mass density (m1 = 0.05) is reported as 999.46 ± 0.12 kg/m3, the mass density (m1 = 0.16) is reported as 1004.6 ± 0.1 kg/m3 and the mass density (m1 = 0.25) is reported as 1008.74 ± 0.12 kg/m3.

`[Cl-].[Na+]` [sodium chloride] + O showed a mass density (m1 = 0.05) of 999.12 ± 0.13 kg/m3, a mass density (m1 = 0.16) of 1003.6 ± 0.1 kg/m3 and a mass density (m1 = 0.25) of 1007.22 ± 0.13 kg/m3.
